Measured values reported in patent publication US20200030202A1, “TWO-STEP TREATMENT FOR DESQUAMATION OF SKIN” (L'OREAL, priority 2018, published 2020).

System: isolated human stratum corneum (SC)
Assay: DSC lipid disorganization (shift of melting transition temperatures) of treated stratum corneum
Conditions: 15 minutes per treatment, 75% RH, RT
Procedure: Various compositions (alkaline versus acidic) and treatment protocols were tested and compared to determine which compositions and protocols produced the greatest degree of lipid disorganization, which is a common method for estimating the desquamation efficacy. All DSC experiments were performed on isolated human stratum corneum (SC). The SC was prepared using a standard protocol. Human abdominal skin remaining from plastic surgery was obtained in frozen form. Subcutaneous fat was removed and the dermis was separated from epidermis by plunging the skin into hot water (56° C.) for 1-2 min. The remaining viable epidermis was removed by tryptic digestion at 37° C. overnight. The SC was dried and stored at room temperature and ambient humidity. […]
The degree of lipid disorganization following treatment can be conveniently monitored by the shifts of the melting transition temperatures measured by Differential Scanning Calorimetry (DSC). […]
The maxima of the endothermic peaks corresponding to lipid phase transitions are determined using dedicated software (TA Universal Analysis). The peak position and the transition enthalpy are determined with respect to a manually defined linear baseline. […] The shifts of the melting peak positions (ΔTm(T2) and ΔTm(T3)) are calculated with respect to reference thermogrammes obtained with untreated or vehicle-treated samples. […]

Question: With `O=C(O)CO` [70% GA, glycolic acid] as the molecule, how does the ΔT (Example 3, ΔTeffective=0.7·ΔTm(T2)+0.3ΔTm(T3) vs untreated or vehicle-treated SC, 0.1 gram, decrease of 2° C. considered significant) read?
Answer: Its ΔT is −4.6.

Question: And the ΔT (Example 4, same manner as Example 3, different alkaline agents)?
Answer: Its ΔT is −7.1.
